Reference: patent US20070082339A1, “Methods and compositions for screening for HDAC inhibitory activity” (priority 2005, published 2007)
Square brackets hold non-standard residues; d marks the D form. Peptide text beside a SMILES is read from it. ξ: configuration not given here. Aoe(9ξ) = N[C@@H](CCCCCC(=O)C1CO1)C(=O)O; dPip = O=C(O)[C@H]1CCCCN1

What was measured:
[1] = test system: BID; conditions: T cell leukemia cells; independently of caspase activity; cited from earlier work
[2] = test system: RhoB promoter; test: Chromatin immunoprecipitation assays; type: cell-based; conditions: region containing the inverted CCAAT box
Procedure: (§1) Furthermore, mutations in this CCAAT box reduced the ability of HDAC1 to confer repression of RhoB promoter activity. In addition, chromatin immunoprecipitation assays reveal that TPX increased the level of chromatin acetylation in the TPX-responsive region of the RhoB promoter containing the inverted CCAAT box. […] The global gene expression profiles of A549 cells following inhibition of HDAC with LAQ824 were determined by DNA microarray analysis.

[3] = test system: RhoB promoter; test: RhoB promoter deletion/mutation constructs, induction by TPX; type: cell-based; conditions: following TPX treatment
Procedure: as §1

[4] = biological target: histone deacetylase 1 (Homo sapiens, UniProt Q13547); conditions: Tauton et al. Science 272:408-411 (1996); cited from earlier work
Chain of histone deacetylase 1 (Q13547 whole entry, species assumed): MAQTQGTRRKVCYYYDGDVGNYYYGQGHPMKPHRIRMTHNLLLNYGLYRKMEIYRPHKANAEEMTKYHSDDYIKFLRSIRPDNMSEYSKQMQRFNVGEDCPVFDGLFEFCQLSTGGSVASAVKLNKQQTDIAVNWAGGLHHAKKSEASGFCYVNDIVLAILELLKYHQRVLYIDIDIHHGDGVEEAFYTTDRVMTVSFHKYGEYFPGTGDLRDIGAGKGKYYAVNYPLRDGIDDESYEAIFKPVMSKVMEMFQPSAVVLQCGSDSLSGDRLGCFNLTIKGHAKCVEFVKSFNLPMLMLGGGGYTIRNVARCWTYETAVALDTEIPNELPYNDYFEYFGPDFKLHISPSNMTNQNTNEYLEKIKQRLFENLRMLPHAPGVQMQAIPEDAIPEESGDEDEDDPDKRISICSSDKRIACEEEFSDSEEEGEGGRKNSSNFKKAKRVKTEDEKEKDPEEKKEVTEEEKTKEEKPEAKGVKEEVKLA

O=C(CCCCCCC(=O)Nc1ccccc1)NO [SAHA]
BID cleavage [1]: cleaved

O=C(CCCCC[C@@H]1NC(=O)[C@H]2CCCCN2C(=O)[C@H](Cc2ccccc2)NC(=O)[C@H](Cc2ccccc2)NC1=O)C1CO1 (stereo partly shown) [TPX, trapoxin A] (cyclo(FF[dPip][Aoe(9ξ)]))
level of chromatin acetylation in the TPX-responsive region of the RhoB promoter [2]: increased
induction of expression from RhoB promoter deletion constructs [3]: induction of expression from all of these deletions is similar
inhibition of histone deacetylase 1 [4]: potently inhibit
